Reference: patent US9730937B2, “RAF kinase modulator compounds and methods of use thereof” (AMBIT BIOSCIENCES CORPORATION, priority 2008, dated 2017)
Where a name gives a salt, the structure may show the parent alone. Read-outs that look alike come from different tables or passages of the source.

How the values were obtained:
[1] = tested on: panel of 290 distinct kinases (321 in the larger panel), excluding mutant variants; conditions: kinase selectivity score, class symbols
Procedure: The liganded beads were blocked with excess biotin and washed with blocking buffer (SeaBlock (Pierce), 1% BSA, 0.05% Tween 20, 1 mM DTT) to remove unbound ligand and to reduce non-specific binding. […] Test compounds were prepared as 100× stocks in DMSO and rapidly diluted into the aqueous environment. DMSO was added to control assays lacking a test compound. Primary screen interactions were performed in polypropylene 384-well plates in a final volume of 34 μL, while Kd determinations were performed in polystyrene 96-well plates in a final volume of 135 μL. […] The kinase concentration in the eluates was measured by quantitative PCR. Each kinase was tested individually against each compound. KdS were determined using eleven serial threefold dilutions. A selectivity score, which is a quantitative measure of selectivity of a compound against a panel of enzymes, may be calculated for a compound by dividing the number of enzymes for which a compound meets a set criteria, (for example, a binding constant of 100 nM or less), by the total number of enzymes tested. […] (Note, for those compounds tested in a larger kinase panel, as indicated by an asterisk (*) next to the S35 score, the divisor is 321 (i.e. the larger panel contains 321 distinct kinases, excluding mutant variants.)).

mutant BRAF kinase = mutant BRAF kinase (Homo sapiens (Human), UniProt P15056, V600E); conditions: read-out: BRAF V600E Kd, class symbols
Sequence of mutant BRAF kinase (P15056 whole entry V600E): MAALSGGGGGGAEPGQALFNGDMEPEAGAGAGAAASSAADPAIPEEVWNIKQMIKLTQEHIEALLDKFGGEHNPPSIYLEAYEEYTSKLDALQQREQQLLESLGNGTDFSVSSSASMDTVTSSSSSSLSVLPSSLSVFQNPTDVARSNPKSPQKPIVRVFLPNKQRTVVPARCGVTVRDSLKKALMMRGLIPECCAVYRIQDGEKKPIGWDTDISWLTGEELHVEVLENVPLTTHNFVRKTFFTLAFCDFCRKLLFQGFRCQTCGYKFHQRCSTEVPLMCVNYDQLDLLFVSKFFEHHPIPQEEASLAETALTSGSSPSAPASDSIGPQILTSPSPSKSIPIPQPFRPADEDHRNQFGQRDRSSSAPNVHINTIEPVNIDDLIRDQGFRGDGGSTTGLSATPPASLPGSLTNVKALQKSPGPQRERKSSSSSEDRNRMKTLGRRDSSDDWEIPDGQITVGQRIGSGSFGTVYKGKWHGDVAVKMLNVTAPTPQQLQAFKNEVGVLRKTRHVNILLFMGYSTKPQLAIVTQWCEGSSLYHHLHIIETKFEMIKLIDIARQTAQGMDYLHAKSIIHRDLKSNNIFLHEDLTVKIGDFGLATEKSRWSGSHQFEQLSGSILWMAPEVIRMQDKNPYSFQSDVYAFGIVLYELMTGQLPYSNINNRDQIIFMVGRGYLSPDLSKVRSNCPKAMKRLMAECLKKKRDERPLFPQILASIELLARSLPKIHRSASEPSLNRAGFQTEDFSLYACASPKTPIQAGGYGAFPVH

[2] = value marked * (larger kinase panel)

Row | SMILES | S35 ([1]; 290 distinct kinases) | Kd (mutant BRAF kinase) [nM] | S35 [1, 2]
1 | COc1cc2c(Sc3cccc(NC(=O)Nc4cc(C(C)(C)C)on4)c3)ncnc2cc1OCCCN1CCN(CCO)CC1 [Ex 75, 1-(5-tert-butylisoxazol-3-yl)-3-(3-(7-(3-(4-(2-hydroxyethyl)piperazin-1-yl)propoxy)-6-methoxyquinazolin-4-ylthio)phenyl)urea] | D (D > 0.40) | < 250 | –
2 | COc1cc2c(Oc3cccc(NC(=O)Nc4cc(C(C)(C)C)on4)c3)ncnc2cc1OCCN1CCN(CCO)CC1 [Ex 38, 1-(5-tert-butylisoxazol-3-yl)-3-(3-(7-(2-(4-(2-hydroxyethyl)piperazin-1-yl)ethoxy)-6-methoxyquinazolin-4-yloxy)phenyl)urea] | D (D > 0.40) | < 250 | –
3 | COc1cc2ncnc(Oc3cccc(NC(=O)Nc4ccc(C(C)(C)C)cc4)c3)c2cc1OC [Ex 173, 1-(4-tert-butylphenyl)-3-(3-(6,7-dimethoxyquinazolin-4-yloxy)phenyl)urea] | C (0.20 < C ≦ 0.40) | < 250 | –
4 | COc1cc2ncnc(Oc3cccc(NC(=O)Nc4cc(C(C)(C)C)on4)c3)c2cc1OCCN1CCOCC1 [Ex 20, 1-(5-tert-butylisoxazol-3-yl)-3-(3-(7-methoxy-6-(2-morpholinoethoxy)quinazolin-4-yloxy)phenyl)urea] | C (0.20 < C ≦ 0.40) | < 250 | –
5 | COc1cc2ncnc(Sc3cccc(NC(=O)Nc4cc(C(C)(C)C)on4)c3)c2cc1OCCCN1CCC(CO)CC1 [Ex 58, 1-(5-tert-butylisoxazol-3-yl)-3-(3-(6-(3-(4-(hydroxymethyl)piperidin-1-yl)propoxy)-7-methoxyquinazolin-4-ylthio)phenyl)urea] | D (D > 0.40) | < 250 | –
6 | COCCOc1cc2ncnc(Sc3cccc(NC(=O)Nc4cc(C(C)(C)C)on4)c3)c2cc1OCCOC [Ex 53, 1-{3-[6,7-bis(2-methoxyethoxy)quinazolin-4-ylthio]phenyl}-3-(5-tert-butylisoxazol-3-yl)urea hydrochloride] | C (0.20 < C ≦ 0.40) | < 250 | –
7 | COc1cc2c(Sc3cccc(NC(=O)Nc4cc(C(C)(C)C)on4)c3)ncnc2cc1OCCCN1CCN(S(C)(=O)=O)CC1 [Ex 77, 1-(5-tert-butylisoxazol-3-yl)-3-(3-(6-methoxy-7-(3-(4-(methylsulfonyl)piperazin-1-yl)propoxy)quinazolin-4-ylthio)phenyl)urea] | D (D > 0.40) | < 250 | –
8 | COc1cc2ncnc(Sc3cccc(NC(=O)Nc4cc(C(C)(C)C)nn4C)c3)c2cc1OC [Ex 157, 1-(3-tert-butyl-1-methyl-1H-pyrazol-5-yl)-3-(3-(6,7-dimethoxyquinazolin-4-ylthio)phenyl)urea] | – | < 250 | C* (0.20 < C ≦ 0.40)
9 | COc1cc2ncnc(Oc3cccc(NC(=O)Nc4cc(C(C)(C)C)on4)c3)c2cc1OCCCN1CCC(CO)CC1 [Ex 24, 1-(5-tert-butylisoxazol-3-yl)-3-(3-(6-(3-(4-(hydroxymethyl)piperidin-1-yl)propoxy)-7-methoxyquinazolin-4-yloxy)phenyl)urea] | D (D > 0.40) | < 250 | –
10 | COc1cc2c(Oc3cccc(NC(=O)Nc4cc(C(C)(C)C)on4)c3)ncnc2cc1OCCCN1CCC(CO)CC1 [Ex 29] | D (D > 0.40) | < 250 | –
11 | COc1cc2c(Sc3cccc(NC(=O)Nc4cc(C(C)(C)C)on4)c3)ncnc2cc1OCCCN1CCCCC1 [Ex 76, 1-(5-tert-butylisoxazol-3-yl)-3-(3-(6-methoxy-7-(3-(piperidin-1-yl)propoxy)quinazolin-4-ylthio)phenyl)urea] | D (D > 0.40) | < 250 | –
12 | COc1cc2ncnc(Oc3cccc(NC(=O)Nc4cc(C(C)(C)C)on4)c3)c2cc1OCCCN1CCCCC1 [Ex 23, 1-(5-tert-butylisoxazol-3-yl)-3-(3-(7-methoxy-6-(3-(piperidin-1-yl)propoxy)quinazolin-4-yloxy)phenyl)urea] | D (D > 0.40) | < 250 | –
13 | COc1cc2c(Oc3cccc(NC(=O)Nc4cc(C(C)(C)C)on4)c3)ncnc2cc1OCCCN1CCN(S(C)(=O)=O)CC1 [Ex 32, 1-(5-tert-butylisoxazol-3-yl)-3-(3-(6-methoxy-7-(3-(4-(methylsulfonyl)piperazin-1-yl)propoxy)quinazolin-4-yloxy)phenyl)urea] | D (D > 0.40) | < 250 | –
14 | COc1cc2c(Sc3cccc(NC(=O)Nc4cc(C(C)(C)C)on4)c3)ncnc2cc1OCCN1CCCCC1 [Ex 80, 1-(5-tert-butylisoxazol-3-yl)-3-(3-(6-methoxy-7-(2-(piperidin-1-yl)ethoxy)quinazolin-4-ylthio)phenyl)urea] | C (0.20 < C ≦ 0.40) | < 250 | –
15 | COc1cc2c(Oc3cccc(NC(=O)Nc4cc(C(C)(C)C)on4)c3)ncnc2cc1OCCCN1CCC(O)C1 (stereo not drawn) [Ex 31, 1-(5-tert-butyl-isoxazol-3-yl)-3-(3-{7-[3-(3-hydroxy-pyrrolidin-1-yl)-propoxy]-6-methoxy-quinazolin-4-yloxy}-phenyl)-urea] | D (D > 0.40) | < 250 | –
16 | CCOc1cccc(NC(=O)Nc2cccc(Oc3ncnc4cc(OC)c(OC)cc34)c2)c1 [Ex 179, 1-(3-(6,7-dimethoxyquinazolin-4-yloxy)phenyl)-3-(3-ethoxyphenyl)urea] | – | < 250 | B* (0.10 < B ≦ 0.20)
17 | COc1cc2ncnc(Oc3cccc(NC(=O)Nc4cc(C(C)(C)C)on4)c3)c2cc1OCCCN1CCN(C)CC1 [Ex 21, 1-(5-tert-butylisoxazol-3-yl)-3-(3-(7-methoxy-6-(3-(4-methylpiperazin-1-yl)propoxy)quinazolin-4-yloxy)phenyl)urea] | D (D > 0.40) | < 250 | –
18 | COc1cc2c(Oc3cccc(NC(=O)Nc4cc(C(C)(C)C)on4)c3)ncnc2cc1OCCCN1CC[C@@H](O)C1 [Ex 34, (R)-1-(5-tert-Butylisoxazol-3-yl)-3-(3-(7-(3-(3-hydroxypyrrolidin-1-yl)propoxy)-6-methoxyquinazolin-4-yloxy)phenyl)urea] | – | < 250 | D* (D > 0.40)
19 | COc1cc2c(Oc3cccc(NC(=O)Nc4cc(C(C)(C)C)on4)c3)ncnc2cc1O[C@@H]1CCN(C)C1 [Ex 99, (R)-1-(5-tert-butylisoxazol-3-yl)-3-(3-(6-methoxy-7-(1-methylpyrrolidin-3-yloxy)quinazolin-4-yloxy)phenyl)urea mono acetate] | C (0.20 < C ≦ 0.40) | < 250 | –
20 | CC(C)(C)c1cc(NC(=O)Nc2cccc(Sc3ncnc4ccc(OCCCN5CCS(=O)(=O)CC5)cc34)c2)no1 [Ex 90, 1-(5-tert-butyl-isoxazol-3-yl)-3-(3-{6-[3-(1,1-dioxo-thiomorpholin-4-yl)-propoxy]-quinazolin-4-ylsulfanyl}-phenyl)-urea] | C (0.20 < C ≦ 0.40) | < 250 | –
21 | COc1cc2c(Oc3cccc(NC(=O)Nc4cc(C(C)(C)C)on4)c3)ncnc2cc1OCCN1CCN(C)CC1 [Ex 36, 1-(5-tert-butylisoxazol-3-yl)-3-(3-(6-methoxy-7-(2-(4-methylpiperazin-1-yl)ethoxy)quinazolin-4-yloxy)phenyl)urea] | C (0.20 < C ≦ 0.40) | < 250 | –
22 | COc1cc2c(Oc3cccc(NC(=O)Nc4cc(C(C)(C)C)on4)c3)ncnc2cc1O[C@H]1CCN(C)C1 [Ex 97, (S)-1-(5-tert-butylisoxazol-3-yl)-3-(3-(6-methoxy-7-(1-methylpyrrolidin-3-yloxy)quinazolin-4-yloxy)phenyl)urea mono acetate] | C (0.20 < C ≦ 0.40) | < 250 | –
23 | CCOc1cc2c(Sc3cccc(NC(=O)Nc4cc(C(C)(C)C)on4)c3)ncnc2cc1OC [Ex 56, 1-(5-tert-butylisoxazol-3-yl)-3-(3-(6-ethoxy-7-methoxyquinazolin-4-ylthio)phenyl)urea] | B (0.10 < B ≦ 0.20) | < 250 | –
24 | COCCOc1cc2ncnc(Oc3cccc(NC(=O)Nc4cc(C(C)(C)C)no4)c3)c2cc1OC [Ex 202, 1-(3-tert-butylisoxazol-5-yl)-3-(3-(6-methoxy-7-(2-methoxyethoxy)quinazolin-4-yloxy)phenyl)urea] | C (0.20 < C ≦ 0.40) | < 250 | –
25 | COc1cc2c(Sc3cccc(NC(=O)Nc4cc(C(C)(C)C)on4)c3)ncnc2cc1OCCCN1CCN(C)CC1 [Ex 73, 1-(5-tert-butylisoxazol-3-yl)-3-(3-(6-methoxy-7-(3-(4-methylpiperazin-1-yl)propoxy)quinazolin-4-ylthio)phenyl)urea] | D (D > 0.40) | < 250 | –
26 | COc1cc2c(Oc3cccc(NC(=O)Nc4cc(C(C)(C)C)on4)c3)ncnc2cc1OCCCN1CCOCC1 [Ex 27, 1-(5-tert-butylisoxazol-3-yl)-3-(3-(6-methoxy-7-(3-morpholinopropoxy)quinazolin-4-yloxy)phenyl)urea] | D (D > 0.40) | < 250 | –
27 | COc1cc2ncnc(Sc3cccc(NC(=O)Nc4cc(C(C)(C)C)on4)c3)c2cc1OC [Ex 46, 1-(5-tert-butylisoxazol-3-yl)-3-(3-(6,7-dimethoxyquinazolin-4-ylthio)phenyl)urea] | C (0.20 < C ≦ 0.40) | < 250 | –
28 | COc1cc2ncnc(Sc3cccc(NC(=O)Nc4cc(C(C)(C)C)on4)c3)c2cc1OCCN1CCN(S(C)(=O)=O)CC1 [Ex 69, 1-(5-tert-butylisoxazol-3-yl)-3-(3-(7-methoxy-6-(2-(4-(methylsulfonyl)piperazin-1-yl)ethoxy)quinazolin-4-ylthio)phenyl)urea] | C (0.20 < C ≦ 0.40) | < 250 | –
29 | COCCOc1cc2c(Oc3cccc(NC(=O)Nc4cc(C(C)(C)C)on4)c3)ncnc2cc1OC [Ex 15, 1-(5-tert-butylisoxazol-3-yl)-3-{3-[7-methoxy-6-(2-methoxyethoxy)quinazolin-4-yloxy]phenyl}urea hydrochloride] | C (0.20 < C ≦ 0.40) | < 250 | –
30 | COc1cc2c(Sc3cccc(NC(=O)Nc4cc(C(C)(C)C)on4)c3)ncnc2cc1OCCN1CCN(S(C)(=O)=O)CC1 [Ex 81, 1-(5-tert-butylisoxazol-3-yl)-3-(3-(6-methoxy-7-(2-(4-(methylsulfonyl)piperazin-1-yl)ethoxy)quinazolin-4-ylthio)phenyl)urea] | C (0.20 < C ≦ 0.40) | < 250 | –
